From patent US20250332173A1, “COMPOUNDS AND METHODS FOR MODULATING NUCLEIC ACID SPLICING” (REMIX THERAPEUTICS INC., priority 2021, published 2025)
Read-outs that look alike come from different tables or passages of the source.

Columns and labels:
Format in all cases: cell-based, human
MYB mRNA = test: RT-qPCR splicing assay, MYB canonical junction (CJ) and alternative junction (AJ) mRNA; settings: Homo sapiens; for AC50: increase in MYB alternative junction (AJ) mRNA, read-out: MYB AJ AC50
Procedure, shortened: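 24 h treatment, 37 °C/5% CO2; A673 or K562; 11-pt 3-fold series, top 10 uM final; DMSO ≤0.25%. Cell lysis with DNase I, then 1-step RT-qPCR. Housekeeping normalization: PPIA (A673), GAPDH or GUSB (K562).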

SMN2 mRNA = test: RT-qPCR splicing assay, SMN2 canonical junction (CJ) mRNA; settings: Homo sapiens; Table 5 panel; canonical junction qPCR; compound concentration having 50% response in CJ decrease; read-out: SMN2 IC50 (decrease in CJ mRNA levels)
Procedure, shortened: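 Exposure: 24 h, 37 °C, 11-point 3-fold dilutions from 10 uM final, DMSO at or below 0.25%, in A673 or K562 cells. Detection: cell-lysate RT-qPCR of canonical junction mRNA relative to GAPDH, GUSB or PPIA.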

Target C = test: HiBiT protein abundance assay, Target C (Promega Nano-Glo HiBiT Lytic Detection System, knock-in K562 cell line); settings: Homo sapiens, K562, 24 h, HiBiT K562 cell line, 24 hours, top dose 10 μM; read-out: Effect on protein abundance, Target C (IC50 category)
Procedure, shortened: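 Knock-in K562 cells carrying HiBiT-tagged Target C, 10,000 per well, treated 24 h at 37 °C with 10-point threefold dilutions (top 10 μM final, ≤0.25% DMSO). Lytic HiBiT luminescence read; response normalised to unmodified K562 and DMSO controls, four-parameter fit interpolated at 50% for IC50.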

[1] = Table 5 panel, canonical junction qPCR, compound concentration having 50% response in CJ decrease, read-out: MYB IC50 (decrease in CJ mRNA levels)
[2] = decrease in MYB canonical junction (CJ) mRNA, RT-qPCR, read-out: MYB CJ IC50

Row | Compound | IC50 (MYB mRNA; [1]) | IC50 (MYB mRNA; [2]) | IC50 (SMN2 mRNA) | IC50 (Target C) | AC50 (MYB mRNA; RT-qPCR)
1 | Cc1cc(-c2cc(F)c3c(=O)n(C4CCNC5(CC5)C4)ccc3c2)cc2cn(C)nc12 (centres unmarked) [Compound 415, 2-{4-azaspiro[2.5]octan-7-yl}-6-(2,7-dimethylindazol-5-yl)-8-fluoroisoquinolin-1-one] | < 0.1 µM | < 0.1 µM | < 0.1 µM | < 0.1 µM | < 0.1 µM
2 | Cc1cn2cc(-n3ccc4cc(N5C[C@@H](C)N[C@@H](C)C5)ccc4c3=O)nc(C)c2n1 [Compound 454, 2-{2,8-dimethylimidazo[1,2-a]pyrazin-6-yl}-6-[(3R,5S)-3,5-dimethylpiperazin-1-yl]isoquinolin-1-one] | > 10 µM | > 10 µM | 1 to 10 µM | > 10 µM | > 10 µM
3 | Cn1cc2c(n1)CCN(c1cc(F)c3c(=O)n(C4CCNCC4)cnc3c1)C2 [Compound 365, 5-fluoro-7-(2-methyl-2,4,6,7-tetrahydro-5H-pyrazolo[4,3-c]pyridin-5-yl)-3-(piperidin-4-yl)quinazolin-4(3H)-one] | 1 to 10 µM | 1 to 10 µM | 0.1 to 1 µM | > 10 µM | 1 to 10 µM
4 | Cc1cn2nc(-c3cc(C)c4c(=O)n(C5CCNC6(CC6)C5)ccc4c3)cc(C)c2n1 (stereo in doubt) [Compound 397, (S)-6-(2,8-dimethylimidazo[1,2-b]pyridazin-6-yl)-8-methyl-2-(4-azaspiro[2.5]octan-7-yl)isoquinolin-1(2H)-one] | 0.1 to 1 µM | < 0.1 µM | < 0.1 µM | < 0.1 µM | 0.1 to 1 µM
5 | Cc1c(O)c(-c2cc(F)c3c(=O)n(C4CCNC5(CC5)C4)ccc3c2)cc2cn(C)nc12 (centres unmarked) [Compound 419, 2-{4-azaspiro[2.5]octan-7-yl}-8-fluoro-6-(6-hydroxy-2,7-dimethylindazol-5-yl)isoquinolin-1-one] | 1 to 10 µM | 1 to 10 µM | 0.1 to 1 µM | > 10 µM | 1 to 10 µM
6 | Cc1nc2c(C)cc(-c3cc(F)c4c(=O)n(C5CCNC6(CC6)C5)ccc4c3)cc2o1 (centres unmarked) [Compound 418, 2-{4-azaspiro[2.5]octan-7-yl}-6-(2,4-dimethyl-1,3-benzoxazol-6-yl)-8-fluoroisoquinolin-1-one] | < 0.1 µM | < 0.1 µM | < 0.1 µM | < 0.1 µM | < 0.1 µM
7 | Cn1cc2nc(-c3ccc4c(=O)n(C5CCNC6(CC6)C5)ncc4c3)ccc2n1 (centres unmarked) [Compound 511] | 0.1 to 1 µM | 0.1 to 1 µM | < 0.1 µM | 0.1 to 1 µM | 0.1 to 1 µM
8 | Cc1cc(-c2ccc3c(=O)n(C4CCN(C)CC4)cnc3n2)cc2cn(C)nc12 [Compound 173] | > 10 µM | > 10 µM | 1 to 10 µM | > 10 µM | > 10 µM
9 | Cc1cc(-c2cc(F)c3c(=O)n(C4CCNC5(CC5)C4)ccc3c2)nc2cn(C)nc12 (centres unmarked) [Compound 431] | < 0.1 µM | < 0.1 µM | < 0.1 µM | < 0.1 µM | < 0.1 µM
10 | Cc1cn2nc(-c3cc(F)c4c(=O)n([C@H]5CCNC6(CC6)C5)ncc4c3)cc(C)c2n1 [Compound 447] | < 0.1 µM | < 0.1 µM | < 0.1 µM | < 0.1 µM | < 0.1 µM

Second part, led by results:

Row | IC50 (MYB mRNA; [1]) | IC50 (MYB mRNA; [2]) | IC50 (SMN2 mRNA) | IC50 (Target C) | Compound | AC50 (MYB mRNA; RT-qPCR)
11 | 0.1 to 1 µM | 0.1 to 1 µM | < 0.1 µM | > 10 µM | Cc1cn2cc(-c3cc(F)c4c(=O)n(C5CCNC5)ccc4c3)cc(C#N)c2n1 (centres unmarked) [Compound 434, 6-[8-fluoro-1-oxo-2-(pyrrolidin-3-yl)isoquinolin-6-yl]-2-methylimidazo[1,2-a]pyridine-8-carbonitrile] | 0.1 to 1 µM
12 | < 0.1 µM | < 0.1 µM | < 0.1 µM | 0.1 to 1 µM | Cc1cn2cc(-c3cc(F)c4c(=O)n(C5CCNCC5)ccc4c3)cc(C#N)c2n1 [Compound 383, 6-[8-fluoro-1-oxo-2-(piperidin-4-yl)isoquinolin-6-yl]-2-methylimidazo[1,2-a]pyridine-8-carbonitrile] | < 0.1 µM
13 | 0.1 to 1 µM | 0.1 to 1 µM | < 0.1 µM | 0.1 to 1 µM | COc1cc(-c2cc(C)c3nc(C)cn3n2)cc2ccn(C3CCNCC3)c(=O)c12 [Compound 399, 6-{2,8-dimethylimidazo[1,2-b]pyridazin-6-yl}-8-methoxy-2-(piperidin-4-yl)isoquinolin-1-one] | 0.1 to 1 µM
14 | < 0.1 µM | < 0.1 µM | < 0.1 µM | < 0.1 µM | Cc1cn2nc(-c3cc(C#N)c4c(=O)n(C5CCNC6(CC6)C5)ccc4c3)cc(C)c2n1 (centres unmarked) [Compound 387] | < 0.1 µM
15 | 1 to 10 µM | 1 to 10 µM | < 0.1 µM | > 10 µM | Cc1cn2cc(-c3ccc4c(=O)n([C@@H]5CCNC5)cc(C)c4c3)cc(F)c2n1 [Compound 452, (R)-6-(8-fluoro-2-methylimidazo[1,2-a]pyridin-6-yl)-4-methyl-2-(pyrrolidin-3-yl)isoquinolin-1(2H)-one] | 1 to 10 µM
16 | < 0.1 µM | < 0.1 µM | < 0.1 µM | < 0.1 µM | Cc1cn2cc(-c3cc(F)c4c(=O)n(C5CCNCC5)ccc4c3)cc(F)c2n1 [Compound 370] | < 0.1 µM
17 | > 10 µM | > 10 µM | 1 to 10 µM | > 10 µM | Cc1cn2cc(-c3ccc4c(=O)n([C@H]5CCNC5)cc(C)c4c3)cc(C#N)c2n1 [Compound 456, (S)-2-methyl-6-(4-methyl-1-oxo-2-(pyrrolidin-3-yl)-1,2-dihydroisoquinolin-6-yl)imidazo[1,2-a]pyridine-8-carbonitrile] | > 10 µM
18 | 0.1 to 1 µM | 0.1 to 1 µM | < 0.1 µM | 1 to 10 µM | Cc1cn2nc(-c3ccc4c(=O)n([C@H]5CCNC[C@H]5F)cnc4c3)cc(C)c2n1 [Compound 372] | 0.1 to 1 µM
19 | 1 to 10 µM | 1 to 10 µM | 1 to 10 µM | 1 to 10 µM | Cc1cn2cc(-c3cc(F)c4c(=O)n(C5CCOC5)cnc4c3)cc(C#N)c2n1 (centres unmarked) [Compound 366, 6-[5-fluoro-4-oxo-3-(oxolan-3-yl)quinazolin-7-yl]-2-methylimidazo[1,2-a]pyridine-8-carbonitrile] | 1 to 10 µM
20 | > 10 µM | > 10 µM | > 10 µM | > 10 µM | Cc1cn2cc(-c3cc(F)c4c(=O)n(C5CCNC6(CC6)C5)ccc4c3)c(O)c(C)c2n1 (centres unmarked) [Compound 421, 2-{4-azaspiro[2.5]octan-7-yl}-8-fluoro-6-{7-hydroxy-2,8-dimethylimidazo[1,2-a]pyridin-6-yl}isoquinolin-1-one] | > 10 µM
21 | < 0.1 µM | < 0.1 µM | < 0.1 µM | 1 to 10 µM | Cc1cn2nc(-c3ccc4c(=O)n([C@H]5CCNC6(CC6)C5)ncc4c3)cc(C)c2n1 [Compound 369, 2-[(7S)-4-azaspiro[2.5]octan-7-yl]-6-{2,8-dimethylimidazo[1,2-b]pyridazin-6-yl}phthalazin-1-one] | < 0.1 µM
22 | < 0.1 µM | < 0.1 µM | < 0.1 µM | < 0.1 µM | Cc1cn2nc(-c3cc(O)c4c(=O)n(C5CCNCC5)ccc4c3)cc(C)c2n1 [Compound 391, 6-(2,8-dimethylimidazo[1,2-b]pyridazin-6-yl)-8-hydroxy-2-(piperidin-4-yl)isoquinolin-1(2H)-one] | < 0.1 µM
